Where two headings read alike, the source gives them in different places.
Assays:
[1] = parameters: method as in PMID 26981575; details: rabbits, cited from earlier work
[2] = test system: Pde4; assay: qPCR of host Pde4 gene expression in Mtb-infected mouse lungs; assay type: in vivo, mice; details: 14 days of treatment (28 days postinfection)
Experimental: Total lung RNA (200 ng) was reverse-transcribed using Sprint RT kit (Clontech, CA, USA); 10 ng of cDNA were used for quantitative real-time PCR (qPCR), with Brilliant II SYBR master mix (Agilent Technologies, CA, USA) and gene-specific primers in a Stratagene Mx3005P instrument (Agilent Technologies, CA, USA). ROX was included in each reaction as an internal control. The qPCR assay was performed using four mouse samples in duplicate per group; the data were analyzed using MxPro Software (Agilent Technologies, CA, USA). Transcript levels of Gapdh were used as a reference against the test genes. Fold change in gene expression was calculated using the formula 2^−ΔΔCt, where ΔCt is the difference in threshold cycle (Ct) between the target gene and Gapdh; and ΔΔCt is the […] between untreated and CC-11050-treated samples. Primers were designed based on nucleotide sequences obtained from PrimerBank.^3

[3] = test system: lung granulomas; assay: Histology and morphometric measurement of lung granulomas in Mtb-infected mice; assay type: in vivo; details: 28 days postinfection (14 days of treatment), histology
Experimental: Formalin-fixed lung tissues of Mtb-infected mice were paraffin-embedded, cut into […] sections, and stained with hematoxylin and eosin (H&E) or acid fast staining by Ziehl–Neelsen (ZN) method to visualize host cells and Mtb, respectively (IDEXX-RADIL Laboratories Inc., MO, USA) as described in Ref. ([11]). Stained sections were photographed in a Nikon Microphot-FX photomicrographic system and analyzed with NIS-Elements F3.0 software (Nikon Instruments Inc., NY, USA). Lung granuloma size was morphometrically measured using PathScan Enabler IV scanner (Meyer Instruments, Houston, TX, USA) and SigmaScan Pro software (Systat Software, Inc., CA, USA). Histopathologic analysis and morphometry were performed by an experienced pathologist blinded to the sample identity.

[4] = Plasma pharmacokinetics of CC-11050 in mice after a single oral gavage (LC-MS/MS); assay type: in vivo; details: for Plasma concentration of CC-11050: mean ± SD
Experimental: The PDE4i, CC-11050 (N-[2-[(1S)-1-(3-ethoxy-4-methoxyphenyl)-2-(methylsulfonyl) ethyl]-2,3-dihydro-3-oxo-1H-isoindol-4-yl]-(9Cl) cyclopropanecarboxamide) has an empirical formula of C24H28N2O6S with one chiral center (Figure S1A in Supplementary Material). Uninfected mice (n = 3 per group) were treated with 5, 25, or 50 mg/kg of CC-11050 by oral gavage. In another experiment, mice (n = 3) were treated with 50 mg/kg of CC-11050 plus 50 mg/kg of INH. A group of mice (n = 3) without treatment were included as negative control. Venous blood was collected at 1, 2, 5, 8, and 24 h after a single gavage administration of CC-11050, with or without INH. Time-matched blood samples were also collected from untreated mice. The animals were gavaged after overnight fasting and fed soon after gavage. Plasma was collected by centrifugation of blood samples at 1,100× g for 10 min at 10°C and used for LC-MS/MS analysis.
The standard curve and quality control for CC-11050 were prepared in mouse plasma diluted 1:1 with Sorenson’s Citrate Buffer (25 mM; pH 1.5). Internal standard was prepared with ^13CD3-CC-11050 and mixed with the standard, quality control, or test samples at 4:1:1 (^13CD3-CC-11050:mouse plasma:Sorenson’s Citrate Buffer, vol/vol/vol) ratio. The mix was centrifuged at 4,000 rpm for 10 min at room temperature, and the supernatant was transferred to a 96-well assay plate. LC-MS/MS was performed using a Sciex API 4000 triple quadrupole mass spectrometer (Sciex, Division of MDS Inc., Canada) coupled to a Shimadzu HPLC system (Shimadzu Scientific Instruments, MD, USA). A Phenomenex Gemini column (5 μm, 2.0 mm × 50 mm; Phenomenex, CA, USA) was used for chromatography with 0.1% formic acid in water (mobile phase A) and 0.1% formic acid in acetonitrile (mobile phase B). The parameters used were 0 min for 10%B, 0.0–2.0 min for 10–75%B, 2.1–3.0 min for 95%B, and 3.05–4.0 min for 10%B. For mass spectrometric detection, a positive ion mode with turbo spray (ion source temperature of 450°C) and a dwell time of 100 ms was used. Analytes were quantified using multiple reactions monitoring (MRM) at the following transitions: mass-to-charge ratio 473.1–178.1 and 477.1–182.1 m/z for CC-11050 and its internal standard, respectively. Peak area ratios of the analyte to its internal standard versus analyte concentration, represented as quadratic regression plots, were derived with 1/x^2 weighting. Watson LIMS™ software was used to determine the pharmacokinetic parameters (Thermo Fisher, PA, USA). Peak plasma concentration (Cmax) and corresponding time (Tmax) were calculated from raw data. Area under the plasma concentration-time curve (AUC) was determined by linear/linear-log trapezoidal rule of non-compartmental model using data from time 0 and the last measurable time point (AUClast). All statistics were performed with Watson LIMS™ software. Plasma concentrations below the limit of quantitation (BLOQ) were treated as 0 for calculation.

[5] = single oral dose 50 mg/kg CC-11050 + 50 mg/kg INH
[6] = single oral dose 50 mg/kg CC-11050 only

SMILES: CCOc1cc([C@@H](CS(C)(=O)=O)N2Cc3cccc(NC(=O)C4CC4)c3C2=O)ccc1OC [CC-11050, N-[2-[(1S)-1-(3-ethoxy-4-methoxyphenyl)-2-(methylsulfonyl)ethyl]-2,3-dihydro-3-oxo-1H-isoindol-4-yl]-(9Cl) cyclopropanecarboxamide]
- Cmax ([1]; 50 mg/kg): 163 ng/mL
- Tmax ([1]; 50 mg/kg): 4 h
- Effect of INH on the pharmacokinetics of CC-11050 [1]: no effects
- Pde4A expression in lungs versus Mtb-infected untreated [2]: No significant change
- Pde4C expression in lungs versus Mtb-infected untreated [2]: No significant change
- Pde4D expression in lungs versus Mtb-infected untreated ([2]; 50 mg/kg, P = 0.0037): significantly reduced
- Pde4Bi3 (Pde4B isoform 3) expression in lungs versus Mtb-infected untreated ([2]; 50 mg/kg, P = 0.015): significantly reduced
- Impact on size and structure of lung lesions [3]: no significant impact
- AUClast ([4]; single oral dose 5 mg/kg): 1,080 ng × h/ml
- AUClast ([4]; single oral dose 25 mg/kg): 2,800 ng × h/ml
- AUClast [4, 5]: 13,900 ng × h/ml
- Cmax [4, 5]: 1,610 ng/ml
- Tmax [4, 5]: 5.0 h
- Plasma concentration of CC-11050 ([4]; single oral dose 50 mg/kg CC-11050 + 50 mg/kg INH, 1 h): 905.35 ± 594.23 ng/mL
- Plasma concentration of CC-11050 ([4]; single oral dose 50 mg/kg CC-11050 + 50 mg/kg INH, 2 h): 1,309.39 ± 214.08 ng/ml
- Plasma concentration of CC-11050 ([4]; single oral dose 50 mg/kg CC-11050 + 50 mg/kg INH, 5 h): 1,609.18 ± 167.2 ng/ml
- Plasma concentration of CC-11050 ([4]; single oral dose 50 mg/kg CC-11050 + 50 mg/kg INH, 8 h): 1,271.73 ± 249.18 ng/ml
- Plasma concentration of CC-11050 ([4]; single oral dose 50 mg/kg CC-11050 + 50 mg/kg INH, 24 h): 4.96 ± 1.85 ng/mL
- AUClast [4, 6]: 10,200 ng × h/ml
- Cmax [4, 6]: 1,410 ng/ml
- Tmax [4, 6]: 2.0 h
- Plasma concentration of CC-11050 ([4]; single oral dose 50 mg/kg CC-11050 only, 1 h): 1,331.6 ± 136.97 ng/ml
- Plasma concentration of CC-11050 ([4]; single oral dose 50 mg/kg CC-11050 only, 2 h): 1,409.47 ± 140.85 ng/ml
- Plasma concentration of CC-11050 ([4]; single oral dose 50 mg/kg CC-11050 only, 5 h): 948.85 ± 128.7 ng/mL
- Plasma concentration of CC-11050 ([4]; single oral dose 50 mg/kg CC-11050 only, 8 h): 820.6 ± 265.98 ng/mL
- Plasma concentration of CC-11050 ([4]; single oral dose 50 mg/kg CC-11050 only, 24 h): 1.27 ± 1.1 ng/mL
- Time to peak plasma concentration (Tmax) ([4]; single oral dose, each of three dose levels 5, 25, 50 mg/kg): 1 to 2 h
